System: human heart-derived protein hNBC2b (Na+—HCO3− cotransporter)
Assay: Analysis of functions of human heart-derived protein by intracellular pH measurement (BCECF, ammonium pre-pulse) in hNBC2b-33/CHO-K1 cell
Format: cell-based
Details: DIDS final concentration 100 μM, 1 mM amyloride present
Protocol: Data is expressed as mean±standard error. Comparison between 2 groups was carried out by T test and p<0.001 was determined to be significant. hNBC2b-33/CHO-K1 cell which had been cultured in Ham F12 medium (manufactured by Nissuiseiyaku) containing 10% bovine fetal serum (manufactured by Life Technologies, Inc.; USA) and wild type CHO-K1 cell as a control were seeded on a 96-well white plate to 2×10^4 cells/well, and cultured in a carbonic gas incubator at 37° C. for 48 hours. […] The solution was aspiration-removed, washed with 150 μl of A solution, the solution was aspiration-removed, 150 μl of A solution containing 1 mM amyloride (manufactured by Sigma) was added, and variation in an intracellular pH was measured with a fluorescent drug screening system FDSS 2000 (Hamamatsu Photonics). 200 μl of C solution (115 mM sodium chloride, 25 mM potassium chloride, 25 mM sodium bicarbonate, 0.8 mM dipotassium phosphate, 0.2 mM monopotassium phosphate, 1 mM potassium chloride, 1 mM magnesium chloride, 1 mM amyloride (manufactured by Sigma), 10 mM HEPES, pH 7.4) was added, and an increased amount of an intracellular pH increased in 1 minute (a ratio of fluorescent values at 450 nm and 490 nm (450 nm/490 nm)) was calculated. […]

With `O=S(=O)(O)c1cc(N=C=S)ccc1C=Cc1ccc(N=C=S)cc1S(=O)(=O)O` [DIDS, 4,4′-diisothiocyanatostilbene-2,2′-disulfonic acid] the “increase in an intracellular pH after addition of C solution containing sodium ions and bicarbonate ions (ratio of fluorescent values 450 nm/490 nm)” value was “suppressed”.

Reference: patent US6723522B1, “Sodium bicarbonate cotransporter protein” (Takeda Chemical Industries, Ltd., priority 1998, dated 2004)
